Test results taken from paper PMC6271041, “Synthesis and Biological Evaluation of Novel 2-Arylalkylthio-5-iodine-6-substituted-benzyl-pyrimidine-4(3H)-ones as Potent HIV-1 Non-Nucleoside Reverse Transcriptase Inhibitors” (Molecules, 2014).

Columns and labels:
HIV-1 RT = biological target: T1, HIV-1 RT (Human immunodeficiency virus type 1 group M subtype B, UniProt P04585); test: Inhibitory activity against HIV-1 RT (biotin-dUTP incorporation, colorimetric); format: biochemical; conditions: for IC50: mean of three separate experiments, variation less than 15%
T1 construct: The biotin-dUTP was incorporated by reverse transcriptase (Sigma, St. Louis, MO, USA); purchased Sigma
Method: Oligo(dT) (TaKaRa Co., Otsu, Japan) was immobilized via its 5'-terminal phosphate to Covalink-NH microtiter plates (NUNC Co., Roskilde, Denmark). The biotin-dUTP was incorporated by reverse transcriptase (Sigma, St. Louis, MO, USA). Briefly, a serial concentration of inhibitor was added to the mixture, which contained 50 mmol/L Tris-HCl (pH 8.3), 3 mmol/L MgCl2, 75 mmol/L KCl, 5 mmol/L DTT, 0.13 mg/mL BSA, 10 μg/mL poly (A), 0.75 μM biotin-11-Dutp, 1.5 μM dTTP and HIV-1 RT. After incubation at 37 °C for 1h, washing buffer, which contained 50 mmol/L Tris-HCl (pH 7.5), 0.15 mol/L NaCl, 0.05 mmol/L MgCl2 and 0.02% Tween20, was used to wash the plate. Then each well of the plate was added […] 1% BSA and incubated at room temperature for another 30 min. The plate was washed with the same buffer for 3 times. Before further incubation at 37 °C for 1 h, 50 μL of alkaline phosphatase streptavidin (SA-ALP) solution (100 ng/mL) was added to each well and washed again as above. Finally, 50 μL of p-nitrophenyl phosphate, disodium (PNPP, 1 mg/mL, pH 9.5) was added and incubated at 37 °C for 30 min. 0.5 mol/L NaOH was added to stop the reaction and a colorimetric streptavidin-alkaline phosphatase reporter system was used to detect and quantify the result.

HIV-1SF33 = test: Inhibitory activity on HIV-1SF33 infection in TZM-bl cells (p24 ELISA); format: cell-based; conditions: Human immunodeficiency virus 1, 168 h, read-out: EC50 /SF33, concentration inhibiting 50% viral replication, HIV-1SF33 infection in TZM-bl cell line, 7 days
Method: TZM-bl cells, HIV-1SF33 were obtained from the NIH AIDS Research and Reference Reagent Program (Germantown, MD, USA). The inhibitory activity of the compounds on infection by a laboratory-adapted HIV-1 strain SF33 was tested in TZM-bl cells. Briefly, TZM-bl cells (4 × 10^4/well) were infected by addition of 200 TCID50 of HIV-1, followed by incubation for 2 h at 37 °C before addition of compounds at serial dilutions.

Cc1cc(C)cc(Cc2cc(=O)[nH]c(SCCc3ccc([N+](=O)[O-])cc3)n2)c1 [7n, 2-(4-Nitrophenethylthio)-6-(3,5-dimethylbenzyl)uracil]
IC50 (HIV-1 RT): 1.4 µM | EC50 (HIV-1SF33): 6.12 µM | melting point: 212 to 215 °C

Cc1cc(C)cc(Cc2cc(=O)[nH]c(SCCOc3ccc([N+](=O)[O-])cc3)n2)c1 [7q, 2-(2-(4-Nitrophenoxy)ethylthio)-6-(3,5-dimethylbenzyl)uracil]
IC50 (HIV-1 RT): 0.59 µM | EC50 (HIV-1SF33): 5.07 µM | melting point: 210 to 214 °C

CC(=O)c1ccc(CSc2nc(Cc3cc(C)cc(C)c3)c(I)c(=O)[nH]2)cc1 [8h, 2-(4-Acetylbenzylthio)-5-iodine-6-(3,5-Dimethylbenzyl)uracil]
fold more active compared to nevirapine (HIV-1 RT IC50) (HIV-1 RT): about 10 fold | IC50 (HIV-1 RT): 0.41 µM | EC50 (HIV-1SF33): 1.06 µM | melting point: 201 to 203 °C

Cc1cc(C)cc(Cc2nc(SCCc3ccc([N+](=O)[O-])cc3)[nH]c(=O)c2I)c1 [8n, 2-(4-Nitrophenethylthio)-5-iodine-6-(3,5-dimethylbenzyl)uracil]
fold more active compared to nevirapine (HIV-1 RT IC50) (HIV-1 RT): about 10 fold | IC50 (HIV-1 RT): 0.7 µM | EC50 (HIV-1SF33): 3.84 µM | melting point: 220 to 221 °C

Cc1cc(C)cc(Cc2nc(SCCOc3ccc([N+](=O)[O-])cc3)[nH]c(=O)c2I)c1 [8q]
IC50 (HIV-1 RT): 1.31 µM | EC50 (HIV-1SF33): 9.44 µM | melting point: 215 to 218 °C

O=c1[nH]c(SCCOc2ccc([N+](=O)[O-])cc2)nc(Cc2cc(F)cc(F)c2)c1I [8r, 2-(2-(4-Nitrophenoxy)ethylthio)-5-Iodine-6-(3,5-difluorobenzyl)uracil]
IC50 (HIV-1 RT): 2.56 µM | EC50 (HIV-1SF33): 4.1 µM | melting point: 224 to 226 °C

Cc1ccnc2c1NC(=O)c1cccnc1N2C1CC1 [nevirapine, reference compound]
EC50 (HIV-1SF33): 0.19 µM
